Experimental data published in patent publication US6958345B2, “2-hydroxymethylcyclopropylidene methylpurines and -pyrimidines as antiviral agents” (The Regents of the University of Michigan, priority 1997, dated 2005).

How the values were obtained:
[1] = tested on: HCMV; experiment: HCMV plaque reduction assay in HFF cells; assay type: cell-based, Human CMV (HCMV); conditions: HFF cells; plaque reduction
Experimental: (§1) Cells and viruses. The routine growth and passage of KB cells was performed in monolayer cultures using minimal essential medium (MEM) with either Hanks salts [MEM(H)] or Earle salts [MEM(E)] supplemented with 10% calf serum. The sodium bicarbonate concentration was varied to meet the buffering capacity required. Cultures of diploid human foreskin fibroblasts (HFF) or MRC-5 cells were grown in medium consisting of MEM(E) with 10% fetal bovine serum. Cells were passaged at 1:2 to 1:10 dilutions according to conventional procedures by using 0.05% trypsin plus 0.02% EDTA in a HEPES buffered salt solution (HBS) (Shipman, C., Jr., Proc. Soc. Exp. Biol. 130:305-310 (1969)) as described previously. Turk, S. R., et al., Antimicrob. Agents Chemother. 31:544-550 (1987). HFF and MRC-5 cells were passaged only at 1:2 dilutions. CEM cells were maintained in suspension culture as detailed previously. Kucera, L. S., et al., AIDS Res. Human Retroviruses 9:307-314 (1993).
(§2) Virological procedures. Stock HCMV was prepared by infecting HFF cells at a multiplicity of infection (m.o.i.) of <0.01 plaque-forming units (p.f.u.) per cell. Cell growth medium was changed every four days until cytopathology was evident in all cells (approximately 21 days). Supernatant fluids were retained as the virus stock. High titer HSV-1 stocks were prepared by infecting KB cells at an m.o.i. of <0.1 as detailed previously. Turk, S. R., et al., Antimicrob. Agents Chemother. 31:544-550 (1987). Virus titers were determined using monolayer cultures of HFF cells for HCMV and monolayer cultures of BSC-1 cells for HSV-1 as described earlier. Prichard, M. N., et al., J. Virol. Methods 28:101-106 (1990). Briefly, HFF or BSC-1 cells were planted as described above in 96-well cluster dishes and incubated overnight at 37° C. in a humidified 3% CO297% air atmosphere. The next day cultures were inoculated with HCMV or HSV-1 and serially diluted 1:3 across the remaining eleven columns of the 96-well plate. Cultures were incubated at 37° C. for 2 hr to permit virus adsorption and then virus inoculum was replaced with 0.2 mL of fresh medium. Cultures were incubated for seven days for HCMV, two or three days for HSV-1, medium was removed, and the cell sheets were stained with 0.1% crystal violet in 20% methanol. Plaques were enumerated under 20-fold magnification in wells having the dilution which gave 5 to 20 plaques per well. Virus titers were calculated according to the following Formula: Titer (p.f.u./mL)=number of plaques×5×3^n; where n represents the nth dilution of the virus used to infect the well in which plaques were enumerated.
(a) HCMV. The effect of compounds on the replication of HCMV has been measured using a plaque reduction assay. HFF cells in 24-well cluster dishes were infected with approximately 100 p.f.u. of HCMV per cm^2 cell sheet using the procedures detailed above. Following virus adsorption, compounds dissolved in growth medium were added to duplicate wells in three to six selected concentrations. Following incubation at 37° C. for 7 to 10 days, cell sheets were fixed, stained with crystal violet and microscopic plaques enumerated as described above. Drug effects were calculated as a percentage of reduction in number of plaques in the presence of each drug concentration compared to the number observed in the absence of drug. Ganciclovir (DHPG) was used as a positive control in all experiments.
(§3) Data Analysis. Dose-response relationships were constructed by linearly regressing the percent inhibition of parameters derived in the preceding sections against log drug concentrations. Fifty-percent inhibitory (IC50) concentrations were calculated from the regression lines. Samples containing positive controls (acyclovir for HSV-1, ganciclovir for HCMV, and 2-acetylpyridine thiosemicarbazone for cytotoxicity) were used in all assays.

[2] = tested on: HCMV; experiment: HCMV yield reduction assay in HFF cells; assay type: cell-based, Human CMV (HCMV); conditions: footnote says IC90
Experimental: as §2
The effect of compounds on the replication of HCMV also was measured using a yield reduction assay. HFF cells were planted as described above in 96-well cluster dishes, incubated overnight, medium removed and the cultures were inoculated with HCMV at a m.o.i. of 0.5 to 1 p.f.u. per cell as reported elsewhere. After virus adsorption, inoculum was replaced with 0.2 mL of fresh medium containing test compounds. The first row of 12 wells was left undisturbed and served as virus controls. Each well in the second row received an additional 0.1 mL of medium with test compound at three times the desired final concentration. The contents of the 12 wells were mixed by repeated pipetting and then serially diluted 1:3 along the remaining wells. In this manner, six compounds could be tested in duplicate on a single plate with concentrations from 100 μM to 0.14 μM. Plates were incubated at 37° C. for seven days, subjected to one cycle of freezing and thawing; aliquots from each of the eight wells of a given column were transferred to the first column of a fresh 96-well monolayer culture of HFF cells. Contents were mixed and serially diluted 1:3 across the remaining eleven columns of the secondary plate. Each column of the original primary plate was diluted across a separate plate in this manner. Cultures were incubated, plaques were enumerated, and titers calculated as described above.
as §3

[3] = tested on: HFF cells; experiment: Cytotoxicity in stationary HFF cells, microscopic inspection; assay type: cell-based, human
Experimental: as §1
(§4) Cytotoxicity assays. Two different assays were used to explore cytotoxicity of selected compounds as we have detailed previously. (i) Cytotoxicity produced in stationary HFF cells and in growing CEM cells was determined by microscopic inspection of cells used in plaque and RT assays which were not affected by the virus. Turk, S. R., et al., Antimicrob. Agents Chemother. 31:544-550 (1987). (ii) The effect of compounds during two population doublings of KB cells was determined by crystal violet staining and spectrophotometric quantitation of dye eluted from stained cells. Prichard, M. N., et al., Antimicrob. Agents Chemother. 35:1060-1065 (1991).
as §3

[4] = tested on: KB cells; experiment: Cytotoxicity in KB cells, growth over two population doublings; assay type: cell-based
Experimental: as §1, §4, §3

[5] = tested on: CEM cells; experiment: Cytotoxicity in growing CEM cells, microscopic inspection; assay type: cell-based
Experimental: as §1, §4, §3

[6] = tested on: murine cytomegalovirus (MCMV); experiment: Mortality of mice infected with murine cytomegalovirus; assay type: in vivo
Experimental: (§5) Compounds 1 (B=adenin-N^9-yl and guanin-N^9-yl) were evaluated in mice infected with murine cytomegalovirus (MCMV). Mice were infected intraperitonealy with sufficient MCMV to produce 90 to 100% mortality. Compounds were administered once daily for five days at doses of 5.6, 16.7 and 50 mg/kg by intraperitoneal injection in a 0.4% suspension of carboxymethylcellulose. Ganciclovir was administered in sterile water at the same doses as a positive control drug. All compounds were administered to separate groups of 15 mice each at 6, 24, and 48 hours after infection with MCMV. Groups of 10 uninfected mice also received test compounds as toxicity controls at the doses listed above.

[7] = Toxicity controls: uninfected mice given test compound; assay type: in vivo; conditions: 5.6, 16.7 and 50 mg/kg i.p. once daily for five days
Experimental: as §5

Work on `Nc1ncnc2c1ncn2C=C1CC1CO` (stereo not drawn) [1 (B = adenine), Example 5, syn-N^9-(2-hydroxymethylcyclopropylidenemethyl)adenine] yielded an IC50 [1] of 2 µM, an IC90 [2] of 1.5 µM and an IC50 [3] greater than 100 µM. The IC50 [4] was 82 µM, the IC50 [5] was greater than 100 µM and the “mortality of MCMV-infected mice” value ([6]; 50 mg/kg i.p. once daily for five days, placebo 100%) was 33%. For the same molecule, the “effect on mortality at lower doses or delayed administration” value ([6]; lower doses, administration delayed until 24 or 48 hours after infection) was “Decreasing effects” and the “deaths in uninfected mice that received only drug” value [7] was “No deaths were observed”.
